Results from patent US9394297B2, “Amides as pim inhibitors” (AMGEN INC., priority 2012, dated 2016).
Where a name gives a salt, the structure may show the parent alone. Read-outs that look alike come from different tables or passages of the source.

Legend:
Pim-1 = Pim-1 (Homo sapiens (Human), UniProt P11309); experiment: Pim-Mn enzyme assay (HTRF, 384-well), Pim-1; type: biochemical; details: read-out: Pim-1-Mn IC50 IP
Pim-2 = Pim-2 (Homo sapiens (Human), UniProt Q9P1W9); experiment: Pim-Mn enzyme assay (HTRF, 384-well), Pim-2; type: biochemical; details: read-out: Pim-2-Mn IC50 IP
[1] = Pim-1 enzyme 5 pM, ATP 1.5 μM, BAD (S112) 0.5 μM, HTRF, 22-point curve
[2] = Pim-2 enzyme 0.5 pM, ATP 1.5 μM, BAD (S112) 0.5 μM, HTRF, 22-point curve

Pim-1, sequence (P11309 whole entry): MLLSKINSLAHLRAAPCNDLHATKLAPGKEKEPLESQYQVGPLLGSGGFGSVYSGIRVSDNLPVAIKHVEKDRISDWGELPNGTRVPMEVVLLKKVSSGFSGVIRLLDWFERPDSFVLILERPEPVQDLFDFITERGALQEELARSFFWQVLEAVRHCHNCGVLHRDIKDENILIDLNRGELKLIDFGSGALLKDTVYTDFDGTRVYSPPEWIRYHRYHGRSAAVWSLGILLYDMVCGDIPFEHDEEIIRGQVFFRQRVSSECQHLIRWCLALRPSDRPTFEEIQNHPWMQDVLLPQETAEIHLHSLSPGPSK
Pim-2, sequence (Q9P1W9 whole entry): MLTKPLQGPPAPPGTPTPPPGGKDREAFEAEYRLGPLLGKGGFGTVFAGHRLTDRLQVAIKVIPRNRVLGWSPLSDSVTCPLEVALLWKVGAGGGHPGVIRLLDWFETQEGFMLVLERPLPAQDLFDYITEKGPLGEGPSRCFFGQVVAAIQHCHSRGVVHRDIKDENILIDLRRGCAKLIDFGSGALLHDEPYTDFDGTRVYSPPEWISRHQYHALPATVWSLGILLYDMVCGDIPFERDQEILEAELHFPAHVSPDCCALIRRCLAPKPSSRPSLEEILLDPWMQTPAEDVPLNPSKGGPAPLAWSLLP

C[C@H]1NC(=O)c2cc(-c3cccc4c(=O)n(CCCS(C)(=O)=O)c(NC(C)(C)C)nc34)[nH]c21 [Example 508, (R)-2-(tert-butylamino)-8-(6-methyl-4-oxo-1,4,5,6-tetrahydropyrrolo[3,4-b]pyrrol-2-yl)-3-(3-(methylsulfonyl)propyl)quinazolin-4(3H)-one]
IC50 (Pim-1; [1]): 0.9 nM
IC50 (Pim-2; [2]): 0.3 nM

Cc1nc2cccc(-c3cc4c([nH]3)CCNC4=O)c2nc1N[C@@H](C)C(F)(F)F [Example 255, (S)-2-(2-methyl-3-((1,1,1-trifluoropropan-2-yl)amino)quinoxalin-5-yl)-6,7-dihydro-1H-pyrrolo[3,2-c]pyridin-4(5H)-one]
IC50 (Pim-1; [1]): 28.3 nM
IC50 (Pim-2; [2]): 27.2 nM

Cc1nc2cccc(-c3cc4c([nH]3)C(C)CNC4=O)c2nc1NC1CC1 (single isomer, unassigned) [Example 161, 2-(3-(cyclopropylamino)-2-methylquinoxalin-5-yl)-7-methyl-6,7-dihydro-1H-pyrrolo[3,2-c]pyridin-4(5H)-one]
IC50 (Pim-1; [1]): 0.8 nM
IC50 (Pim-2; [2]): 0.7 nM

Cn1c(NC(C)(C)C)nc2c(-c3cc4c([nH]3)[C@@H](CCN)NC4=O)cccc2c1=O [Example 504, (R)-8-(6-(2-aminoethyl)-4-oxo-1,4,5,6-tetrahydropyrrolo[3,4-b]pyrrol-2-yl)-2-(tert-butylamino)-3-methylquinazolin-4(3H)-one]
IC50 (Pim-1; [1]): 0.04 nM
IC50 (Pim-2; [2]): 0.02 nM

Cc1nc2cccc(-c3cc4c([nH]3)[C@@H](C)NC4=O)c2nc1N[C@H]1CCC[C@@H](NC(=O)[C@@H](CO)NC(=O)OC(C)(C)C)C1 [Example 491, tert-butyl((1R)-1-(hydroxymethyl)-2-(((1R,3S)-3-((3-methyl-8-((6R)-6-methyl-4-oxo-1,4,5,6-tetrahydropyrrolo[3,4-b]pyrrol-2-yl)-2-quinoxalinyl)amino)cyclohexyl)amino)-2-oxoethyl)carbamate]
IC50 (Pim-1; [1]): 20 nM
IC50 (Pim-2; [2]): 10 nM

Cc1nc2cccc(-c3cc4c([nH]3)C[C@H](C)NC4=O)c2nc1NC(C)(C)C [Example 288, (6S)-2-(3-(tert-butylamino)-2-methyl-5-quinoxalinyl)-6-methyl-1,5,6,7-tetrahydro-4H-pyrrolo[3,2-c]pyridin-4-one]
IC50 (Pim-1; [1]): 5.85 nM
IC50 (Pim-2; [2]): 3.96 nM

CC(=O)N[C@@H]1CCC[C@H](Nc2nc3c(-c4cc5c([nH]4)[C@@H](C)NC5=O)cccc3nc2C)C1 [Example 486, N-((1R,3S)-3-((3-methyl-8-((6R)-6-methyl-4-oxo-1,4,5,6-tetrahydropyrrolo[3,4-b]pyrrol-2-yl)-2-quinoxalinyl)amino)cyclohexyl)acetamide]
IC50 (Pim-1; [1]): 1.73 nM
IC50 (Pim-2; [2]): 2.38 nM

CCn1c(NC(C)(C)C)nc2c(-c3cc4c([nH]3)[C@@H](C)NC4=O)c(F)ccc2c1=O [Example 512, (R)-2-(tert-Butylamino)-3-ethyl-7-fluoro-8-(6-methyl-4-oxo-1,4,5,6-tetrahydropyrrolo[3,4-b]pyrrol-2-yl)quinazolin-4(3H)-one]
IC50 (Pim-1; [1]): 0.029 nM
IC50 (Pim-2; [2]): 0.0741 nM

Cc1nc2cccc(-c3cc4c([nH]3)CCNC4=O)c2nc1N[C@H]1CCCN(C(=O)OC(C)(C)C)C1 [Example 51, tert-butyl (3S)-3-((3-methyl-8-(4-oxo-4,5,6,7-tetrahydro-1H-pyrrolo[3,2-c]pyridin-2-yl)-2-quinoxalinyl)amino)-1-piperidinecarboxylate]
IC50 (Pim-1; [1]): 191 nM
IC50 (Pim-2; [2]): 220 nM

Cc1nc2cccc(-c3cc4c([nH]3)CCNC4=O)c2nc1N[C@H]1CC[C@H]1N (racemic) [Example 54, rac-2-(3-((cis-2-aminocyclobutyl)amino)-2-methyl-5-quinoxalinyl)-1,5,6,7-tetrahydro-4H-pyrrolo[3,2-c]pyridin-4-one]
IC50 (Pim-1; [1]): 1.3 nM
IC50 (Pim-2; [2]): 2.9 nM

CSc1nc2c(-c3cc4c([nH]3)CCNC4=O)cccc2c(=O)n1C [Example 265, 3-methyl-2-(methylthio)-8-(4-oxo-4,5,6,7-tetrahydro-1H-pyrrolo[3,2-c]pyridin-2-yl)quinazolin-4(3H)-one]
IC50 (Pim-1; [1]): 25.2 nM
IC50 (Pim-2; [2]): 11.9 nM

Cc1nc2cccc(-c3cc4c([nH]3)C(C)CNC4=O)c2nc1NC1CC1 (single isomer, unassigned) [Example 160, 2-(3-(cyclopropylamino)-2-methylquinoxalin-5-yl)-7-methyl-6,7-dihydro-1H-pyrrolo[3,2-c]pyridin-4(5H)-one]
IC50 (Pim-1; [1]): 1 nM
IC50 (Pim-2; [2]): 0.5 nM

C[C@H]1NC(=O)c2cc(-c3c(F)ccc4c(=O)n(C5CC5)c(NC5(C)CC5)nc34)[nH]c21 [Example 495, (R)-3-cyclopropyl-7-fluoro-8-(6-methyl-4-oxo-1,4,5,6-tetrahydropyrrolo[3,4-b]pyrrol-2-yl)-2-((1-methylcyclopropyl)amino)quinazolin-4(3H)-one]
IC50 (Pim-1; [1]): 0.046 nM
IC50 (Pim-2; [2]): 0.06 nM

Cc1nc2cccc(-c3cc4c([nH]3)[C@@H](C)NC4=O)c2nc1N[C@H]1CCC[C@@H](NS(C)(=O)=O)C1 [Example 489, N-((1R,3S)-3-((3-methyl-8-((6R)-6-methyl-4-oxo-1,4,5,6-tetrahydropyrrolo[3,4-b]pyrrol-2-yl)-2-quinoxalinyl)amino)cyclohexyl)methanesulfonamide]
IC50 (Pim-1; [1]): 4 nM
IC50 (Pim-2; [2]): 2 nM

Cc1nc2cccc(-c3cc4c([nH]3)[C@@H](C)NC4=O)c2nc1N[C@H]1CCC[C@@H](NCC(F)(F)F)C1 [Example 487, (6R)-6-methyl-2-(2-methyl-3-(((1S,3R)-3-((2,2,2-trifluoroethyl)amino)cyclohexyl)amino)-5-quinoxalinyl)-5,6-dihydropyrrolo[3,4-b]pyrrol-4(1H)-one]
IC50 (Pim-1; [1]): 0.501 nM

CC(C)(C)Nc1nc2c(-c3cc4c([nH]3)CCNC4=O)cccc2nc1C(F)(F)F [Example 224, 2-(3-(tert-butylamino)-2-(trifluoromethyl)quinoxalin-5-yl)-6,7-dihydro-1H-pyrrolo[3,2-c]pyridin-4(5H)-one]
IC50 (Pim-1; [1]): 4.2 nM
IC50 (Pim-2; [2]): 2.8 nM

Cc1nc2cccc(-c3cc4c([nH]3)CCNC4=O)c2nc1N[C@H]1C[C@@H](N(CCF)CCF)C1 [Example 476, 2-(3-(((1 s,3s)-3-(bis(2-fluoroethyl)amino)cyclobutyl)amino)-2-methylquinoxalin-5-yl)-6,7-dihydro-1H-pyrrolo[3,2-c]pyridin-4(5H)-one]
IC50 (Pim-1; [1]): 2 nM
IC50 (Pim-2; [2]): 12 nM

Cc1nc2cccc(-c3cc4c([nH]3)CCNC4=O)c2nc1NS(C)(=O)=O [Example 240, N-(3-methyl-8-(4-oxo-4,5,6,7-tetrahydro-1H-pyrrolo[3,2-c]pyridin-2-yl)quinoxalin-2-yl)methanesulfonamide 2,2,2-trifluoroacetate]
IC50 (Pim-1): 87.5 nM
IC50 (Pim-2): 9.6 nM

CC#CCC1CNC(=O)c2cc(-c3cccc4nc(C)c(F)nc34)[nH]c21 (racemic) [Example 280, rac-7-(2-butyn-1-yl)-2-(3-fluoro-2-methyl-5-quinoxalinyl)-1,5,6,7-tetrahydro-4H-pyrrolo[3,2-c]pyridin-4-one]
IC50 (Pim-1; [1]): 838 nM
IC50 (Pim-2; [2]): 706 nM

C[C@H]1NC(=O)c2cc(-c3cccc4c(N)nc(NC(C)(C)C)nc34)[nH]c21 [Example 484, (6R)-2-(4-amino-2-(tert-butylamino)-8-quinazolinyl)-6-methyl-5,6-dihydropyrrolo[3,4-b]pyrrol-4(1H)-one]
IC50 (Pim-1; [1]): 3.98 nM
IC50 (Pim-2; [2]): 7.66 nM

Cc1nc2cccc(-c3cc4c([nH]3)CCNC4=O)c2nc1OC1CCC1 [Example 151, 2-(3-cyclobutoxy-2-methylquinoxalin-5-yl)-6,7-dihydro-1H-pyrrolo[3,2-c]pyridin-4(5H)-one]
IC50 (Pim-1; [1]): 18.2 nM
IC50 (Pim-2; [2]): 12.3 nM

Cc1nc2cccc(-c3cc4c([nH]3)CCNC4=O)c2nc1NC1CN(C)C1 [Example 243, 2-(2-methyl-3-((1-methyl-3-azetidinyl)amino)-5-quinoxalinyl)-1,5,6,7-tetrahydro-4H-pyrrolo[3,2-c]pyridin-4-one]
IC50 (Pim-1; [1]): 853 nM
IC50 (Pim-2; [2]): 1050 nM

C[C@H]1NC(=O)c2cc(-c3cccc4c(=O)n(CC(F)(F)F)c(NC(C)(C)C)nc34)[nH]c21 [Example 501, 2-(tert-butylamino)-8-((6R)-6-methyl-4-oxo-1,4,5,6-tetrahydropyrrolo[3,4-b]pyrrol-2-yl)-3-(2,2,2-trifluoroethyl)-4(3H)-quinazolinone]
IC50 (Pim-1; [1]): 0.16 nM
IC50 (Pim-2; [2]): 0.19 nM

CC[C@H]1NC(=O)c2cc(-c3cccc4c(=O)n(C5CC5)c(NC(C)(C)C)nc34)[nH]c21 [Example 511, (R)-2-(tert-butylamino)-3-cyclopropyl-8-(6-ethyl-4-oxo-1,4,5,6-tetrahydropyrrolo[3,4-b]pyrrol-2-yl)quinazolin-4(3H)-one]
IC50 (Pim-1; [1]): 1 nM
IC50 (Pim-2; [2]): 0.7 nM

C[C@H]1NC(=O)c2cc(-c3c(F)ccc4c(=O)n(C5CC5)c(NC5(C)CCC5)nc34)[nH]c21 [Example 498, 3-Cyclopropyl-7-fluoro-2-((1-methylcyclobutyl)amino)-8-((6R)-6-methyl-4-oxo-1,4,5,6-tetrahydropyrrolo[3,4-b]pyrrol-2-yl)-4(3H)-quinazolinone]
IC50 (Pim-1; [1]): 0.07 nM

Cc1nc2cccc(-c3cc4c([nH]3)CCNC4=O)c2nc1N[C@H]1C[C@H](N)C1 [Example 437, 2-(3-(((1r,3r)-3-aminocyclobutyl)amino)-2-methylquinoxalin-5-yl)-6,7-dihydro-1H-pyrrolo[3,2-c]pyridin-4(5H)-one hydrochloride]
IC50 (Pim-1; [1]): 0.5 nM

C[C@H]1NC(=O)c2cc(-c3cccc4c(=O)n(C)c(N[C@H]5CCC[C@@H](N)C5)nc34)[nH]c21 (racemic) [Example 506, (rac)-2-(((cis)-3-aminocyclohexyl)amino)-3-methyl-8-((6R)-6-methyl-4-oxo-1,4,5,6-tetrahydropyrrolo[3,4-b]pyrrol-2-yl)-4(3H)-quinazolinone]
IC50 (Pim-2; [2]): 0.1 nM

(R)-2-(3-(cyclopropylamino)-6-fluoro-2-methylquinoxalin-5-yl)-6-methyl-5,6-dihydropyrrolo[3,4-b]pyrrol-4(1H)-one [Example 284]
IC50 (Pim-1; [1]): 1.2 nM
